The record followed here is patent publication US9694087B2, “Development of novel macromolecule transduction domain with improved cell permeability and method for using same” (priority 2011, dated 2017).

Where a SMILES comes first, the peptide text is derived from it. Where no end group is shown, it is not given here. The star is where a group is joined. X1 = O=C(C=Cc1ccc(O)cc1)*

One data set deals with human skin. The data set is described as follows: Primary stimulus test using human skin (patch test). Format: in vivo. Particulars: overall evaluation from Table 4. On the procedure:
To confirm safety of the modified MTD (M1067) synthesized in Example 4, the modified MTD (M1067)-coumaric acid and the modified MTD (M1067)-acetyl pentapeptide synthesized in Examples 12-1 and 12-2, a primary stimulus test using human skin was performed. The test was conducted by a specialized clinical research organization, Dermapro, and the clinical composition was prepared as will be described below. 30 or more subjects meeting standards for the clinical test and not falling under exclusion standards were selected. Sample materials were applied to backs of the subjects, and removed after 48 hours. The test sites were observed 30 minutes and 24 hours later, after the removal.
The skin evaluation was performed by the Frosch & Kligman method (Frosch P. J and Kligman A. M. J Am Acad Dermatol, 1(1):35-41 (1979)) and standards shown in Table 3 reflecting the Cosmetic, Toiletry, and Fragrance Association (CTFA) guidelines (The Cosmetic, Toiletry and Fragrance Association, Inc. Washington, D.C. 20005 (1981)), average degrees of reaction after 48 and 72 hours were compared, and results were determined based on the average degree of reaction of each composition.

A further data set relates to HeLa cells. The data set can be described thus: Visible cell permeability by confocal microscopy, cervix adenocarcinoma cells. Particulars: 5 μM, 1 hour, FIG. 10. Type of data set: cell-based, human. On the procedure: Cell permeability of HeLa cells (HeLa cell, Human cervix adenocarcinoma, Cat No. CCL-2, ATCC, USA) derived from Human cervix adenocarcinoma as cancer-derived cells was compared using a confocal microscope (Carl Zeisse, Germany).
Particularly, before a test, the HeLa cells were cultured in a 12-well culture plate with a glass cover slip for 24 hours. The HeLa cells were cultured in a DMEM medium containing 10% fetal bovine serum (FBS), and 1% penicillin/streptomycin (10,000 units penicillin and 10,000 μg/mL streptomycin, invitrogen), in a humidified atmosphere with 5% CO2 at 37° C. After 5 μM of peptides was treated to the […] for 1 hour, the cells were fixed with 4% paraformaldehyde (PFA) at room temperature for 20 minutes to observe the cell permeability using a confocal microscope.
To directly detect internalized MTD-FITC, the cells were washed three times with phosphoric acid buffer and 5 μM of 4′,6-diamidino-2-phenylindole (DAPI), which is a nucleus fluorescence staining solution, was counter-stained. […] In addition, an original form of the cell was observed using a nomarski filter with a confocal microscope, and FITC fluorescence and DAPI fluorescence were observed using a filter suitable for a fluorochrome.

The next data set concerns ICR mice. The data set is described as follows: In vivo epithelial tissue (skin) permeability by confocal microscopy. The arrangement: species or system mouse. Particulars: FITC-labelled, applied on gauze to back skin, 1, 3, 6 and 12 hours; FIG. 12. How it is done:
After 1, 3, 6, and 12 hours, the mice were sacrificed by cervical dislocation, and skin at the drug-applied parts was extracted. Afterward, the skin was put in 4% paraformaldehyde for 24 hours to fix a tissue and then prepared in a 6 μm cryosection to form a slide. […] The stained tissue was washed again three times with PBS buffer for 10 minutes, fixed with mounting media, and observed by confocal microscopy.

For `CSCC[C@H](N)C(=O)N[C@@H](CCCNC(=N)N)C(=O)N[C@@H](C)C(=O)N[C@@H](C)C(=O)N[C@@H](C)C(=O)N1CCC[C@H]1C(=O)N[C@@H](C)C(=O)N[C@H](C(=O)N[C@@H](C)C(=O)N[C@@H](C)C(=O)O)C(C)C` [M1067] (H-MRAAAPAVAA-OH), the “evaluation in the human skin primary stimulus test” value in the data set on human skin was “low-stimuli materials”.
The same measure, in the same setting: then `CSCC[C@H](NC(=O)[C@H](CCCNC(=N)N)NC(=O)[C@H](C)NC(=O)[C@H](C)NC(=O)[C@H](C)NC(=O)[C@@H]1CCCN1C(=O)[C@H](C)NC(=O)[C@@H](NC(=O)[C@H](C)NC(=O)[C@H](C)NC(=O)C=Cc1ccc(O)cc1)C(C)C)C(=O)O` [modified MTD (M1067)-coumaric acid] (X1-AAVAPAAARM-OH), with “low-stimuli materials”.
As for “GRKKRRQRRR (also: FITC label, place not given here) [Tat, used FITC-labelled, reference compound]”, the “intracellular localization of the FITC-peptide” value with HeLa cells is “attached to an outside of the cell membrane”. Also, the epithelial permeation entry in the data set on ICR mice was “epithelial permeation was not induced”.
As for “M1103: modified MTD having an amino acid sequence of SEQ. ID. NO: 17 (MRLALPVLLLA; MTD 1103 Amino Acid Sequence)”, the “intracellular localization of the FITC-peptide” value in the data set with HeLa cells is “apparently distributed into a cytoplasm”.
As to “Met Arg Ala Ala Ala Pro Ala Val Ala Ala Lys*Ther Ther Lys Ser [modified MTD (M1067)-acetyl pentapeptide]”, in the data set with human skin, the “evaluation in the human skin primary stimulus test” value is on record as “low-stimuli materials”.
